Measurements taken from ChEMBL document CHEMBL4382196, “Unraveling the Prenylation-Cancer Paradox in Multiple Myeloma with Novel Geranylgeranyl Pyrophosphate Synthase (GGPPS) Inhibitors” (J Med Chem, 2018).
Active and inactive are the calls of the source. No cut-off for these calls is given here.

Experiments:
RPMI-8226 [1] = assay: cells; details: Homo sapiens, RPMI-8226, 72 h
[2] = target: T1, Farnesyl pyrophosphate synthase (Homo sapiens, UniProt P14324); assay: Inhibition of human FPPS using [14C]-IPP and […] after 10 mins by scintillation counting
T1 sequence (P14324 whole entry): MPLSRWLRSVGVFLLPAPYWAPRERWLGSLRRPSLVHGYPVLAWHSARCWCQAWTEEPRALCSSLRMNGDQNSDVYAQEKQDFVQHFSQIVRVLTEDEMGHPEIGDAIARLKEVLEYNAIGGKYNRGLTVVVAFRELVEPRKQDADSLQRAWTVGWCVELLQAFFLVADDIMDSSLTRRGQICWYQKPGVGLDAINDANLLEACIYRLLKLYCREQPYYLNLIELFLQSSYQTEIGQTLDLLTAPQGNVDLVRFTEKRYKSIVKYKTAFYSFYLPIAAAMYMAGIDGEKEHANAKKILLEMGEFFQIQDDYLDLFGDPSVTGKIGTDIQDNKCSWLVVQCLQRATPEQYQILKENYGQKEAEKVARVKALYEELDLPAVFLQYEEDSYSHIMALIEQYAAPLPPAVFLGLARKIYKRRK

RPMI-8226 [3] = assay: Induction of apoptosis in human RPMI8226 cells after 72 hrs by APC Annexin V/eFluor-780-viability double staining-based FACS analysis; assay type: functional, cell-based
Hydroxyapatite = assay: Binding affinity to bone mineral hydroxyapatite at 50 uM by 1H NMR assay
RPMI-8226 [4] = assay: Induction of apoptosis in human RPMI8226 cells assessed as late apoptotic cells at 10 nM after 72 hrs by APC Annexin V/eFluor-780-viability double staining-based FACS analysis (reference value: 5.80%); assay type: functional
RPMI-8226 [5] = assay: Induction of apoptosis in human RPMI8226 cells assessed as necrotic cells at 10 nM after 72 hrs by APC Annexin V/eFluor-780-viability double staining-based FACS analysis (reference value: 3.60%); assay type: functional
RPMI-8226 [6] = assay: Induction of apoptosis in human RPMI8226 cells assessed as viable cells at 10 nM after 72 hrs by APC Annexin V/eFluor-780-viability double staining-based FACS analysis (reference value: 87.3%); assay type: functional; details: RPMI-8226, 72 h, read-out: Activity
RPMI-8226 [7] = assay: Induction of apoptosis in human RPMI8226 cells assessed as early apoptotic cells at 10 nM after 72 hrs by APC Annexin V/eFluor-780-viability double staining-based FACS analysis (reference value: 3.31%); assay type: functional
RPMI-8226 [8] = assay: Induction of apoptosis in human RPMI8226 cells at 10 nM after 72 hrs in presence of GGOH by APC Annexin V/eFluor-780-viability double staining-based FACS analysis; assay type: functional, cell-based
[9] = target: Geranylgeranyl pyrophosphate synthase (Homo sapiens, UniProt O95749, Y246D)
RPMI-8226 [10] = assay: Induction of apoptosis in human RPMI8226 cells assessed as late apoptotic cells at 1 uM after 72 hrs by APC Annexin V/eFluor-780-viability double staining-based FACS analysis (reference value: 5.80%); assay type: functional
RPMI-8226 [11] = assay: Induction of apoptosis in human RPMI8226 cells assessed as necrotic cells at 1 uM after 72 hrs by APC Annexin V/eFluor-780-viability double staining-based FACS analysis (reference value: 3.60%); assay type: functional
RPMI-8226 [12] = assay: Induction of apoptosis in human RPMI8226 cells assessed as early apoptotic cells at 1 uM after 72 hrs by APC Annexin V/eFluor-780-viability double staining-based FACS analysis (reference value: 3.31%); assay type: functional
RPMI-8226 [13] = assay: Induction of apoptosis in human RPMI8226 cells assessed as viable cells at 1 uM after 72 hrs by APC Annexin V/eFluor-780-viability double staining-based FACS analysis (reference value: 87.3%); assay type: functional; details: RPMI-8226, 72 h, read-out: Activity
RPMI-8226 [14] = assay: Induction of apoptosis in human RPMI8226 cells assessed as necrotic cells at 10 uM after 72 hrs by APC Annexin V/eFluor-780-viability double staining-based FACS analysis (reference value: 3.60%); assay type: functional
RPMI-8226 [15] = assay: Induction of apoptosis in human RPMI8226 cells assessed as late apoptotic cells at 10 uM after 72 hrs by APC Annexin V/eFluor-780-viability double staining-based FACS analysis (reference value: 5.80%); assay type: functional
RPMI-8226 [16] = assay: Induction of apoptosis in human RPMI8226 cells assessed as viable cells at 10 uM after 72 hrs by APC Annexin V/eFluor-780-viability double staining-based FACS analysis (reference value: 87.3%); assay type: functional; details: RPMI-8226, 72 h, read-out: Activity
RPMI-8226 [17] = assay: Induction of apoptosis in human RPMI8226 cells assessed as early apoptotic cells at 10 uM after 72 hrs by APC Annexin V/eFluor-780-viability double staining-based FACS analysis (reference value: 3.31%); assay type: functional
[18] = target: T2, Geranylgeranyl pyrophosphate synthase (Homo sapiens, UniProt O95749)
T2 sequence (O95749 whole entry): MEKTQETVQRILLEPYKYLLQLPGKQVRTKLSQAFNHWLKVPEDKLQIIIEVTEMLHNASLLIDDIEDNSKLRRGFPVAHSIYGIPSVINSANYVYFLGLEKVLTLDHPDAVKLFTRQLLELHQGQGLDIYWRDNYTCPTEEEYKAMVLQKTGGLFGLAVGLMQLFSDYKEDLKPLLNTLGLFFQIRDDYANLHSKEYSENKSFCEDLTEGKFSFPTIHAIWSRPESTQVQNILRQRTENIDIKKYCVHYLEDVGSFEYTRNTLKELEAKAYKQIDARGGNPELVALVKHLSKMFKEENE

[19] = target: T3, Farnesyl pyrophosphate synthase (Homo sapiens) (UniProt P14324); assay: Inhibition of human FPPS at 1 uM using [14C]-IPP and […] after 10 mins by scintillation counting relative to control
T3 sequence (whole entry): T1 sequence (P14324 whole entry)

[20] = target: T4, Geranylgeranyl pyrophosphate synthase (Homo sapiens) (UniProt O95749); assay: Inhibition of human N-terminal His6-tagged GGPPS expressed in Escherichia coli BL21(DE3) at 1 uM using [14C]-IPP and FPP as substrates after 10 mins by scintillation counting relative to control
T4 sequence (whole entry): T2 sequence (O95749 whole entry)

Geranylgeranyl pyrophosphate synthase (Homo sapiens, UniProt O95749, Y246D), sequence (O95749 whole entry Y246D): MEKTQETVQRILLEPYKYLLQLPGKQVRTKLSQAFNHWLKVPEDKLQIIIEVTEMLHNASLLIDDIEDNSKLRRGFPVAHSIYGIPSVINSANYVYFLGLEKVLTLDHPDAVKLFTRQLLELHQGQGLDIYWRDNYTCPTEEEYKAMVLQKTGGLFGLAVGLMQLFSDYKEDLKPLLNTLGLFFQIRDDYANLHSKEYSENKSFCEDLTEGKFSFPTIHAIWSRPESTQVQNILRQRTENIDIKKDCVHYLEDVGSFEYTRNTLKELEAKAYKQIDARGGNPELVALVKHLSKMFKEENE

## Cc1ccc(C(=O)Nc2cccc(-c3nc(NC(P(=O)(O)O)P(=O)(O)O)c4ccsc4n3)c2)cc1
RPMI-8226 [1]
  EC50: 720 nM
[2]
  IC50: 2600 nM
RPMI-8226 [3]
  Activity: Dose-dependent effect

## O=P(O)(O)C(O)(Cc1ccccn1)P(=O)(O)O
Hydroxyapatite
  Activity: Active
RPMI-8226 [1]
  EC50: 11000 nM

## CC(C)C[C@H](NC(=O)[C@H](Cc1ccccc1)NC(=O)c1cnccn1)B(O)O [BORTEZOMIB]
RPMI-8226 [4]
  Activity: 78.7%
RPMI-8226 [5]
  Activity: 20.1%
RPMI-8226 [6]
  viability at 0.01 µM: 0.92%
RPMI-8226 [7]
  Activity: 0.26%
RPMI-8226 [8]
  Activity: Active

## COc1ccc(C(=O)Nc2cccc(-c3nc(NC(P(=O)(O)O)P(=O)(O)O)c4ccsc4n3)c2)cc1
[9]
  IC50: 92 nM

## O.O=P(O)(O)C(O)(Cn1ccnc1)P(=O)(O)O [ZOLEDRONIC ACID]
RPMI-8226 [10]
  Activity: 6.53%
RPMI-8226 [11]
  Activity: 5.04%
Hydroxyapatite
  Activity: Active
RPMI-8226 [12]
  Activity: 2.55%
RPMI-8226 [13]
  viability at 1 µM: 85.9%

## CC(C)=CCC/C(C)=C/CC/C(C)=C/CC/C(C)=C/CO [GERANYLGERANIOL]
RPMI-8226 [14]
  Activity: 2.91%
RPMI-8226 [15]
  Activity: 4.96%
RPMI-8226 [16]
  viability at 10 µM: 87.4%
RPMI-8226 [17]
  Activity: 4.71%

## O=P(O)(O)C(Nc1ncnc2sccc12)P(=O)(O)O
[18]
  IC50: > 1000 nM
[19]
  inhibition: 70%
[2]
  IC50: 800 nM
[20]
  inhibition: 40%
